Measurements as given in US20200138764A1, “METHODS AND DEVICES FOR ACTIVATING ADIPOSE TISSUE” (The Procter & Gamble Company, priority 2018, published 2020).

What was measured:
adipocyte = experiment: In vivo browning study in lean mice: Fat % by image analysis of H&E stained tissue; parameters: species or system Mice (C57BJ/6); conditions: mice, SC injection, Formula III one side and mirabegron other side; high and middle dosage merged; H&E images
Experimental: (§1) Mice (8-10 weeks old males C57BJ/6 strain) were obtained from a commercial vendor Charles River Laboratories. The animal study protocols were approved by the Institutional Animal Care and Use Committee, at the Procter & Gamble Company. Mice were acclimated to the facility for 14 days prior to initiating the study. From arrival, mice were housed in solid-bottom shoebox styled cages within room temperature of 22±2° C. with ad libitum access to water and regular rodent chow diet on a 12 h light/dark cycle. Mice were single housed and offered bedding and various enrichment options. The bedding and nesting material allowed the mice to thermoregulate to their desired level of comfort. Body weights were recorded at the beginning of the study, on each dosing day prior to dosing, and final weights were recorded at the end of the study. Overall food consumption, fecal output, and body appearance were monitored during cage side clinical observations but were not scientifically measured or tracked. During the dosing period, the animals were observed several times per day (for example, before and during injection, immediately to 30-min post injection, a few hours after injection, and end of work day).
[…] The injection was performed using a 25-27-gauge ½-⅝″ length needle via a subcutaneous (SC) injection near or into the inguinal fat pad region of the lower abdomen. Dosing was done twice a week injections over 3 weeks. Necropsy was done at week 4. […]
Segments of adipocyte and inter-cellular regions in a stained image were identified by Python […] package. […] The threshold between adipocyte and inter-cellular regions in a converted image was detected by the Otsu filter function of the […]. The detected value was adjusted by multiplying 1.1.
The ratio of adipocyte in an image was calculated from the pixel number of the segments—Adipocyte Pixel was divided by Total Pixel.
The significance of the difference in Adipocyte Ratio between treatment and control groups was assessed by the Negative Binomial Generalized Linear Mixed-Effects Model using glmer.nb function of R lme4 package. […]

fat tissue = experiment: qPCR biomarker analysis of fat tissue, in vivo; parameters: species or system Mice (C57BJ/6); conditions: mouse fat tissue, SC injection twice a week over 3 weeks
Experimental: as §1
Three groups of animals were treated with mirabegron (i.e. positive control) (n=4), placebo (n=2) and Formula III (n=6) on the left side while the right side received placebo in all three groups. The injection was performed using a 25-27-gauge ½-⅝″ length needle via a subcutaneous (SC) injection near or into the inguinal fat pad region of the lower abdomen. Dosing was done twice a week injections over 3 weeks. Necropsy was done at week 4. Test materials were administered at room temperature and in a neutral pH range. Three days after last dosing animals were euthanized with CO2 inhalation, inguinal fat pads were harvested, and tissues were processed for histology and biomarker analysis.
The qPCR biomarker analysis was conducted from flash frozen fat tissue from mouse study described above. First, RNA was manually extracted with RNAdvance Tissue kit (Agencourt). RNA was extracted from flash frozen fat tissue according to manufactuer's directions. For example, 5 mm steel beads were placed in the freezer for approximately 15-20 minutes. Next, Qiagen Buffer RLT was cooled to 4° C. for 20 minutes and placed in a 96 well 1.5 mL tube rack for sample transfer. Isopropanol was added to Agencourt wash buffer. 100 mL aliquots of 70% ethanol in water were prepared. The RNA Tissue beads were allowed to warm to 22° C. (˜30 minutes), and then the beads were shaken vigorously and intermittently for at least 15-20 minutes. 1 stainless steel bead was added to a 2 mL round bottom tube stored on dry ice. The tissue sample was then transferred to the 2 mL round bottom tube.
The tube rack was placed on wet ice. Then, the tubes were transferred from dry ice to the rack in wet ice and 350 μL of cold buffer RLT were added to the tubes. The beads were beaten at 30 Hz for 2 minutes. After bead beating, samples were centrifuged for 2 minutes. The supernatant was transferred into 96 well deep well isolation plate.
80 μL of RNATissue beads were combined with 320 μL of isopropanol to create a Bind Buffer. This solution was prepared fresh for each isolation with any unused solution discarded.
400 μL of Bind Buffer was added to the to RLT mixture and slowly mixed. The solution was incubated at room temperature for 10 minutes. Special care was taken to avoid the formation of bubbles while tip mixing.
The mixture was placed on a magnet (96 well plate—Agencourt SPRIPlate) for 6-10 minutes. After the solution became clear, the supernatant was removed from each tube while the tubes remained on the magnet and the solution was discarded.
The tubes were removed from the magnet and the pellets were washed with 800 μL of the Isopropanol Wash Buffer ten times. […]

Nc1nc(CC(=O)Nc2ccc(CCNC[C@H](O)c3ccccc3)cc2)cs1 [Mirabegron, mirabegron]
Average Fat % (Adipocyte Pixel / Total Pixel) (adipocyte): 94.43%
Average Fold vs Placebo: AdipoQ (fat tissue): 13.7
Average Fold vs Placebo: Adrb3 (fat tissue): 16.3
Average Fold vs Placebo: Cidea (fat tissue): 39.7
Average Fold vs Placebo: Cox7a1 (fat tissue): 27.8
Average Fold vs Placebo: Cox8b (fat tissue): 38.6
Average Fold vs Placebo: Dio2 (fat tissue): 8.3
Average Fold vs Placebo: Elovl3 (fat tissue): 19.1
Average Fold vs Placebo: IL6 (fat tissue): 3.3
Average Fold vs Placebo: Ppargc1 (fat tissue): 12.0
Average Fold vs Placebo: Prdm16 (fat tissue): 5.0
Average Fold vs Placebo: Tfap2a (fat tissue): 15.2
Average Fold vs Placebo: UCP1 (fat tissue): 170.3
